Data taken from BindingDB's records for patent US12384798 (Nanjing Ruijie Pharma Co., 2025).

What was measured:
Acetyl-CoA carboxylase 1 = Acetyl-CoA carboxylase 1 (Homo sapiens, UniProt Q13085); test: In Vitro Assay of Acetyl-CoA Carboxylase (ACC) Inhibition
Method: (§1) An exemplary procedure for the in vitro ACC inhibition assay, which can be used to determine the inhibitory action of the compounds of the invention toward either ACC1 or ACC2, is as follows. The ADP-Glo™ kinase assay kit from Promega was used. The ADP-Glo™ kinase assay is a luminescent ADP detection assay to measure enzymatic activity by quantifying the amount of ADP produced during an enzyme reaction. The assay was performed in two steps; first, after the enzyme reaction, an equal volume of ADP-Glo™ reagent was added to terminate the reaction and deplete the remaining ATP. Then, the kinase detection reagent was added to simultaneously convert ADP to ATP and allow the newly synthesized ATP to be measured using a luciferase/luciferin reaction. Luminescence can be correlated to ADP concentrations by using an ATP-to-ADP conversion curve. The detailed procedure was as follows. 4.5 μL of a working solution was added to a 384-well plate. […] A final ACC reaction solution consisted of: 0.5 nM ACC, 10 μM ATP, 5 μM acetyl-CoA, and 15 mM NaHCO3; and the final concentrations of the compound were measured as follows: 1 μM, 0.333 μM, 0.111 μM, 0.037 μM, 0.0123 μM, 0.00411 μM, 0.00137 μM, 0.000457 μM, 0.000152 μM, and 0.000051 μM. […] The plates were incubated at room temperature for 40 minutes, then read on a Perkin Elmer EnVision 2104 plate reader for luminescence in relative light unit (RLU).

Acetyl-CoA carboxylase 2 = Acetyl-CoA carboxylase 2 (Homo sapiens, UniProt O00763); test: as above
Chain of Acetyl-CoA carboxylase 2 (O00763 whole entry): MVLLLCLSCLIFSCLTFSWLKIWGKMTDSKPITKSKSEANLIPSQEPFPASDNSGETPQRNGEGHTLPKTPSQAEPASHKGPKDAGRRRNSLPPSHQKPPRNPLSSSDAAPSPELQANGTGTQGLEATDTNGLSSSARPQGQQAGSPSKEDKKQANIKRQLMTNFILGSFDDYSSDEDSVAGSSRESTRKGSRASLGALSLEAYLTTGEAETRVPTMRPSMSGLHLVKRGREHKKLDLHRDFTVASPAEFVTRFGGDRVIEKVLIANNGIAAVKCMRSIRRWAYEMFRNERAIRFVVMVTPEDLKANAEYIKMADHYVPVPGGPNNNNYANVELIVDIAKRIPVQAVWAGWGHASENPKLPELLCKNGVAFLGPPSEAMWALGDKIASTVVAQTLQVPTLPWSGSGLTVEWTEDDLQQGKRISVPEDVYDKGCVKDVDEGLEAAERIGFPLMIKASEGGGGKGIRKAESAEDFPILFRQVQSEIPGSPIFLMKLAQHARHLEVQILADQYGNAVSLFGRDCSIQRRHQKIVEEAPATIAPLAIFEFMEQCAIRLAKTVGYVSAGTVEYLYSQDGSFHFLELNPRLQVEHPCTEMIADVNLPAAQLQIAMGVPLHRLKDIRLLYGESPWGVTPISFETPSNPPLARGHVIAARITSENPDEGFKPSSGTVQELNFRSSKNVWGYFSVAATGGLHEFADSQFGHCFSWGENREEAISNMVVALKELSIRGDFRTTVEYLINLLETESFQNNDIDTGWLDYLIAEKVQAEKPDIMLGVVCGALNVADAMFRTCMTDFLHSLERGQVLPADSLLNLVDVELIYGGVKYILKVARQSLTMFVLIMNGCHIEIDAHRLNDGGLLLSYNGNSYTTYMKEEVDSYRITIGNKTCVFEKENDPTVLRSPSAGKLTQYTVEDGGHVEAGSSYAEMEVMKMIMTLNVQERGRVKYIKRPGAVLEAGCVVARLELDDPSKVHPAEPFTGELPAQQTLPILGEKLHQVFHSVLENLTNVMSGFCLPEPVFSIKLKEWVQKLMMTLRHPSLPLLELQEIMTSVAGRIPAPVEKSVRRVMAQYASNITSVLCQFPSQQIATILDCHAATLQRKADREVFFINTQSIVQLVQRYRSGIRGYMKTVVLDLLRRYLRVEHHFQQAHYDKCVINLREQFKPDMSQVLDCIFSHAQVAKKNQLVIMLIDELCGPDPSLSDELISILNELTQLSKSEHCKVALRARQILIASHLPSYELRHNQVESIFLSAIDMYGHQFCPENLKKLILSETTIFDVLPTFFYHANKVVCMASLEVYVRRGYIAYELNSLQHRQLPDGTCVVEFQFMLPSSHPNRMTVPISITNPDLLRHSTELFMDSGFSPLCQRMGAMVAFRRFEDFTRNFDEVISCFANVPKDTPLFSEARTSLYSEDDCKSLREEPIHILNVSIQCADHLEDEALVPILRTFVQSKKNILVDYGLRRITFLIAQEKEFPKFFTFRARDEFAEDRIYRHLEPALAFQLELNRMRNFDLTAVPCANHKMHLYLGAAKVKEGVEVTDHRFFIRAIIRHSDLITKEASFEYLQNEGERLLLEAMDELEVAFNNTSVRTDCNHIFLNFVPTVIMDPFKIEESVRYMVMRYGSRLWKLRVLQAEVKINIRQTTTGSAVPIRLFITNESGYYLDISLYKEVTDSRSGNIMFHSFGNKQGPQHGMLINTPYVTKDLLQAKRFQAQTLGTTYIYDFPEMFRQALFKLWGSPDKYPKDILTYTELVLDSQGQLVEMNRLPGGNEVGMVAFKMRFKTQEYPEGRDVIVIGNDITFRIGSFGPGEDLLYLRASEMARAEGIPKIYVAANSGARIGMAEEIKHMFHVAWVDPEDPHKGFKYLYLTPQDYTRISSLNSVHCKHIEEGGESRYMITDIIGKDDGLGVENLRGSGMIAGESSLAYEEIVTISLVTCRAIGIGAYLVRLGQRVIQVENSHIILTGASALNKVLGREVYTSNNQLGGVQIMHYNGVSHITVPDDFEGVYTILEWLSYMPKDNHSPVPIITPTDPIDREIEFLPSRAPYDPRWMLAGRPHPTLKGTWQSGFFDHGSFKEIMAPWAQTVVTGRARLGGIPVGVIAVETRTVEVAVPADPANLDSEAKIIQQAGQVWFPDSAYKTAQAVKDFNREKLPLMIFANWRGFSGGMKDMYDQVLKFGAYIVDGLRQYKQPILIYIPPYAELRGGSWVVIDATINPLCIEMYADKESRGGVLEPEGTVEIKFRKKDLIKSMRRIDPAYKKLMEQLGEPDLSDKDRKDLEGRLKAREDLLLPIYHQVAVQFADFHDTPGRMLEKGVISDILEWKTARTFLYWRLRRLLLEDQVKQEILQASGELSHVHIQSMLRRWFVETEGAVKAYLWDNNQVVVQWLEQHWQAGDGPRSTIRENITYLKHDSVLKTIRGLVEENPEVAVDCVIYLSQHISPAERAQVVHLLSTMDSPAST
Method: as §1

IC50 (Acetyl-CoA carboxylase 1): 0.487 nM | IC50 (Acetyl-CoA carboxylase 2): 10 nM
Compound: COc1ccccc1[C@H](Cn1c(=O)n(CC2CC(C(=O)O)C2)c(=O)c2c(C)c(-c3ncco3)sc21)OC1CCOCC1 (some centres not stated) [US12384798, Compound c-1]
